From article PMC3086652 (European journal of immunology, 2010)
Ends that are not written are not given here.

Columns and labels:
Assay in all cases: biochemical
Format in all cases: binding
HLA A*6802 = HLA A*6802 (Homo sapiens, UniProt P04439, A269V/D140Y/D185E/E176V/E277Q/E87N/F33Y/G231S/I121R/I166T/I218V/L180W/L300P/L318F/N151K/P208A/P217A/Q86R/R138H/R169H/S129P/T345S/V36M)
HLA A*0202 = HLA A*0202 (Homo sapiens, UniProt P04439, D140Y/D185E/D98H/E176V/E277Q/G131W/G231S/I119L/I121R/I166T/I218V/L180W/L300P/L318F/N151K/N90K/P208A/P217A/Q67R/Q86G/Q94H/R138H/R169H/T345S)
HLA A*0206 = HLA A*0206 (Homo sapiens, UniProt P04439, D140Y/D185E/D98H/E176V/E277Q/F33Y/G131W/G231S/I119V/I121R/I166T/I218V/L300P/L318F/N151K/N90K/P208A/P217A/Q86G/Q94H/R138H/R169H/T345S)
HLA A*0201 = HLA A*0201 (Homo sapiens, UniProt P04439, D140Y/D185E/D98H/E176V/E277Q/G131W/G231S/I119V/I121R/I166T/I218V/L300P/L318F/N151K/N90K/P208A/P217A/Q86G/Q94H/R138H/R169H/T345S)
HLA A*0203 = HLA A*0203 (Homo sapiens, UniProt P04439, A173T/D140Y/D185E/D98H/E277Q/G131W/G231S/I119V/I121R/I166T/I218V/L180W/L300P/L318F/N151K/N90K/P208A/P217A/Q86G/Q94H/R138H/R169H/T345S)

## CC(C)C[C@H](NC(=O)[C@@H](N)[C@@H](C)O)C(=O)N[C@@H](CC(N)=O)C(=O)N[C@@H](C)C(=O)N[C@@H](Cc1c[nH]c2ccccc12)C(=O)N[C@H](C(=O)N[C@@H](CCCCN)C(=O)N[C@H](C(=O)N[C@H](C(=O)O)C(C)C)C(C)C)C(C)C [TV9, reference compound]
HLA A*6802
  IC50: 23900 nM
HLA A*0202
  IC50: 179 nM
HLA A*0206
  IC50: 1960 nM
HLA A*0201
  IC50: 701 nM
HLA A*0203
  IC50: 108 nM

## KINAWIKGV [TV9p5]
HLA A*6802
  IC50: 36800 nM
HLA A*0202
  IC50: 433 nM
HLA A*0206
  IC50: 224 nM
HLA A*0201
  IC50: 536 nM
HLA A*0203
  IC50: 10 nM

## KINAWIKVV [TV9p6]
HLA A*6802
  IC50: > 10000 nM
HLA A*0202
  IC50: 2950 nM
HLA A*0206
  IC50: 13400 nM
HLA A*0201
  IC50: 5120 nM
HLA A*0203
  IC50: 56 nM

## TINAWIKGV [TV9p29]
HLA A*6802
  IC50: 269 nM
HLA A*0202
  IC50: 706 nM
HLA A*0206
  IC50: 2250 nM
HLA A*0201
  IC50: 1060 nM
HLA A*0203
  IC50: 15 nM

## TINAWIKVV [TV9p30]
HLA A*6802
  IC50: 6220 nM
HLA A*0202
  IC50: 1830 nM
HLA A*0206
  IC50: 12600 nM
HLA A*0201
  IC50: 4230 nM
HLA A*0203
  IC50: 112 nM
